One assay has as its target T1, P2Y1 (Homo sapiens, UniProt P47900).
T1 construct: expressed in transfected cells; host or cells: HEK293
In words: Intracellular Ca2+ release in HEK293 cells transfected with P2RY1. Particulars: HEK293 transfected with P2RY1, Fig. 3f. The format is cell-based. The protocol:
(§1) For fluorometric measurements of intracellular Ca^2+ levels with the FlexStationII instrument (Molecular Devices), RAW264.7 and H1819 cells were seeded into 96-well plates (3.0 × 10^4 cells/well) 24 h prior to assay. Ca^2+ measurements with transiently transfected HEK293 cells were performed 48 h after transfection. Cells were loaded with 200 µl Calcium 5 reagent (Explorer Kit, Molecular Devices, USA) for 60 min at 37 °C, and the assay was performed as described. Agonists and inhibitors were solved in DMSO (100x) and diluted […] in 96-well compound plates containing HBSS. 50 µl of compound solution were added to the assay plate resulting in final concentration of 1% DMSO. Fold-response was calculated by RFUmax − RFUmin (ligand)/RFUmax − RFUmin (vehicle). EC50 values were calculated by using GraphPad Prism6 software (GraphPad, USA).

For a further assay, the target named is T2, P2Y12 (Homo sapiens, UniProt Q9H244).
T2 construct: expressed in transfected cells; host or cells: HEK293
T2 sequence (Q9H244 whole entry, species assumed): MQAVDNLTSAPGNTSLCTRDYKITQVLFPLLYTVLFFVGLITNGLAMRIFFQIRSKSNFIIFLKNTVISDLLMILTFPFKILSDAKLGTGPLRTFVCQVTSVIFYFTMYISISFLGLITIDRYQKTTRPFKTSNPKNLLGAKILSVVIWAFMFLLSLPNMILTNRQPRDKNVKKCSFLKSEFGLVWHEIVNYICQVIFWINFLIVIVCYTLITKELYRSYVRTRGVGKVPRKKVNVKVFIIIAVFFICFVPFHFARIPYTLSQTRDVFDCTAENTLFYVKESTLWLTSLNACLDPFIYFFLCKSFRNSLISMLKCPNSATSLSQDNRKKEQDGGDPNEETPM
Briefly: Intracellular Ca2+ release in HEK293 cells transfected with P2RY12. The format is cell-based. Conditions: HEK293 transfected with P2RY12, Fig. 3f. The method, then:
as §1

Another assay concerns 78 orphan GPCRs. In words: PathHunter β-Arrestin Orphan GPCR cell line panel, whole panel. It is filed as cell-based. Conditions: β-arrestin recruitment. The text has this: For screening orphan GPCRs as possible targets for PGE2-G, the PathHunter® β-Arrestin assay (DiscoveRx Co., USA) was used. It monitors the activation of a GPCR by utilizing an enzyme fragment complementation assay with β-galactosidase as the functional reporter. Briefly, the enzyme is split into two complementary portions expressed as fusion proteins in the cell. The enzyme acceptor is fused to β2-arrestin, and the ProLink donor peptide is fused to the GPCR of interest. Upon GPCR stimulation, β2-arrestin is recruited to the receptor, bringing the two fragments of β-galactosidase together. This generates an active enzyme that can convert a chemiluminescent substrate, generating a signal detectable on a standard microplate reader (see manufacturer’s instructions). In total, 78 GPCRs, previously considered orphan and individually transfected into cells, were screened by DiscoveRx (Supplementary Table S1). The percentage activity given in the results is calculated using the following formula: % activity = 100% × (mean RLU of test sample - mean RLU of vehicle control)/mean RLU of vehicle control).
For orientation: Recruitment of arrestin is a read-out of receptor activation apart from second messengers.

Assay [1] has as its system prostanoid receptors EP1–4, DP, FP, TP, or IP. Also on record: method as in PMID 18297109, PMID 14766978, PMID 14757851. Conditions: cited from earlier work.

T1 sequence (P47900 whole entry, species assumed): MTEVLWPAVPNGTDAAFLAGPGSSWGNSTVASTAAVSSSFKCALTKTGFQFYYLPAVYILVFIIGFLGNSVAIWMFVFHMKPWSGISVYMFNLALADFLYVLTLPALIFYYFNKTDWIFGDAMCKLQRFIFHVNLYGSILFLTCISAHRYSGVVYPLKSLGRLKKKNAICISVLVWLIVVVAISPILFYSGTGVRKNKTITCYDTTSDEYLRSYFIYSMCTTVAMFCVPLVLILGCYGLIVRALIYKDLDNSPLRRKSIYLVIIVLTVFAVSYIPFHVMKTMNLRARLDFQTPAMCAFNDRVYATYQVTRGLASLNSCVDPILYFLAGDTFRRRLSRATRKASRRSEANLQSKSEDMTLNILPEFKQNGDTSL

In the case of “Prostaglandin E2 glyceryl ester [PGE2-G]”, the “Ca2+ release” value on P2Y1 was “not and neither P2Y1 nor P2Y12 showed activity”; at P2Y12, “not and neither P2Y1 nor P2Y12 showed activity”. Besides, in the assay with 78 orphan GPCRs, the “response of orphan GPCRs” value is given as “None of the tested receptors demonstrated a positive response”. Also, in assay [1], the “activation of known prostanoid receptors” value is “does not efficiently activate”.

The values above are taken from article PMC5443783, “Prostaglandin E2 glyceryl ester is an endogenous agonist of the nucleotide receptor P2Y6” (Scientific Reports, 2017).
